Experimental data taken from patent publication US4469686A, “Substituted phosphinic acids” (priority 1980, dated 1984).

What was measured:
[1] = Test for catalytic dismutation of superoxide; assay type: biochemical; conditions: test compound: copper glycine ratio of 4:1; read-out: Catalysis of superoxide dismutation, I50
Source text: (A) Test for catalytic dismutation of superoxide:
This test is relevant to degenerative joint disease and inflammation. The method followed is the method of M. YOUNES and U. WESER [Biochem.Biophys.Res.Commun. 1977, 78 (4) 1247-53] using a test compound: copper glycine ratio of 4:1.

[2] = Test for cupriuretic activity; assay type: in vivo; conditions: at 1 mM/kg
Source text: (B) Test for cupriuretic activity:
This test is relevant to Wilson's disease. The method followed is the method of K. GIBBS and J. M. WALSHE (Clinical Science and Molecular Medicine, 1977, 53, 317-20).

mice = assay: Acute toxicity studies in mice; assay type: in vivo; conditions: i.p.
Protocol: Acute toxicity studies in mice have shown that the minimum single dose to cause death is >2400 mg/kg i.p. for compound B and ≤400 mg/kg i.p. for DL-penicillamine.

Compound | IC50 [1] [nM] | Cupriuretic activity, % Increase [2] [%] | minimum single dose to cause death (mice) [mg/kg]
CC(C)(S)C(N)P(=O)(O)O (racemic) [Compound A, DL-(1-Amino-2-mercapto-2-methylpropyl)phosphonic acid] | 1200 | 139 | –
CC(C)(S)C(N)[PH](=O)O (racemic) [Compound B, DL-(1-Amino-2-mercapto-2-methylpropyl)phosphinic acid] | 1200 | 397 | > 2400
CC1(C)NC(P(=O)(O)O)C(C)(C)S1 (racemic) [Compound C, DL-2,2,5,5-Tetramethyl-4-thiazolidinyl)phosphonic acid] | – | 122 | –
CC1(C)NC([PH](=O)O)C(C)(C)S1 (racemic) [Compound D, DL-(2,2,5,5-Tetramethyl-4-thiazolidinyl)phosphinic acid] | – | 308 | –
CC(C)(S)C(N)C(=O)O (racemic) [DL-penicillamine, reference compound] | – | – | ≤ 400
